Measured values published in patent publication US9790209B2, “Kinase inhibitors” (Respivert Limited, priority 2012, dated 2017).
Read-outs that look alike come from different tables or passages of the source.

Legend:
[1] = system: PBMCs; assay: IL-2 and IFN gamma release in CD3/CD28 stimulated PBMC cells; type: cell-based; settings: Homo sapiens
Procedure: PBMCs from healthy subjects are separated from whole blood using a density gradient (Lymphoprep, Axis-Shield Healthcare). Cells are added to a 96 well plate pre-coated with a mixture of CD3/CD38 monoclonal antibodies (0.3 μg/mL eBioscience and 3 μg/mL BD Pharmingen respectively). Compound at the desired concentration is then added to the wells and the plate left for 3 days under normal tissue culture conditions. Supernatants are harvested and IL-2 and IFN gamma release determined by Sandwich ELISA (Duo-set, R&D System). The IC50 is determined from the dose response curve.

[2] = target: c-Src (Homo sapiens (Human), UniProt P12931); assay: c-Src enzyme inhibition, Z-LYTE FRET; type: biochemical
Chain of c-Src (P12931 whole entry, looked up): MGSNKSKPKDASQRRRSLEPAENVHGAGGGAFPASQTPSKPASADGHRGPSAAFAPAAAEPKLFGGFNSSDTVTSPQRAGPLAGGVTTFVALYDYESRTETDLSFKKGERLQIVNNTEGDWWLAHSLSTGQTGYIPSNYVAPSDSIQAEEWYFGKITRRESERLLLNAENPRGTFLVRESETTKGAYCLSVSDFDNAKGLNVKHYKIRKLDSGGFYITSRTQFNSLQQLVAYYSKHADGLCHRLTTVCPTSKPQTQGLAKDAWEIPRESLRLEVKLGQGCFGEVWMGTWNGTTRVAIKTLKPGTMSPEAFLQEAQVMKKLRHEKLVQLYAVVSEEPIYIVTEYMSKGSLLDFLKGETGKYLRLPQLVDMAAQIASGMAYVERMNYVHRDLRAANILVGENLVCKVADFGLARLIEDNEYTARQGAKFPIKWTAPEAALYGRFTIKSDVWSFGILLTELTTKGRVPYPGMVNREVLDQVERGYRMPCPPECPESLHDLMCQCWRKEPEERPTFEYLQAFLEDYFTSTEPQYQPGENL
Procedure: (§1) The enzyme inhibitory activities of compounds disclosed herein are determined by FRET using synthetic peptides labelled with both donor and acceptor fluorophores (Z-LYTE, Invitrogen Ltd., Paisley, UK).
(§2) The inhibitory activities of compounds of the invention against c-Src and Syk enzymes (Invitrogen), are evaluated in a similar fashion to that described hereinabove. The relevant enzyme (3000 ng/mL or 2000 ng/mL respectively, 2.5 μL) is incubated with the test compound (either 4 μg/mL, 0.4 μg/mL, 0.04 μg/mL, or 0.004 μg/mL, 2.5 μL each) for 2 hr at RT. The FRET peptides (8 μM. 2.5 μL), and appropriate ATP solutions (2.5 μL, 800 μM for c-Src, and 60 μM ATP for Syk) are then added to the enzymes/compound mixtures and incubated for 1 hr. Development reagent (protease, 5 μL) is added for 1 hr prior to detection in a fluorescence microplate reader (Varioskan® Flash, ThermoFisher Scientific).
(§3) In all cases, the site-specific protease cleaves non-phosphorylated peptide only and eliminates the FRET signal. Phosphorylation levels of each reaction are calculated using the ratio of coumarin emission (donor) over fluorescein emission (acceptor), for which high ratios indicate high phosphorylation and low ratios indicate low phosphorylation levels. The percentage inhibition of each reaction is calculated relative to non-inhibited control and the 50% inhibitory concentration (IC50 value) is then calculated from the concentration-response curve.

[3] = target: p38 MAPKα (Homo sapiens (Human), UniProt Q16539); assay: p38 MAPKα enzyme inhibition (Method 2), Z-LYTE FRET; type: biochemical
Chain of p38 MAPKα (Q16539 whole entry): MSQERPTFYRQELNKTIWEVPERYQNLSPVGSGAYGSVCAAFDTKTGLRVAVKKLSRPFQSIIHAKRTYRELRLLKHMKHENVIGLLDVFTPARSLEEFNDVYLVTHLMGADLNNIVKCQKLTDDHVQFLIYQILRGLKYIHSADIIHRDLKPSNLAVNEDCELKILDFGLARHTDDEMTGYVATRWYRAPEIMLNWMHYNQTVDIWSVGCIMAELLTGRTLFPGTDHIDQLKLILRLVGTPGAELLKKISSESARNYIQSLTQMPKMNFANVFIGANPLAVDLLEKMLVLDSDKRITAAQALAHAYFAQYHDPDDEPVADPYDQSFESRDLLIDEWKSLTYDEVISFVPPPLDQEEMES
Procedure: as §1
The inhibitory activities of test compounds against the p38 MAPKα isoform (MAPK14: Invitrogen), are evaluated indirectly by determining the level of activation/phosphorylation of the down-stream molecule, MAPKAP-K2. The p38 MAPKα protein (80 ng/mL, 2.5 μL) is mixed with the test compound (2.5 μL of either 4 μg/mL, 0.4 μg/mL, 0.04 μg/mL or 0.004 μg/mL) for 2 hr at RT. […] The mixture is incubated for 1 hr at RT. Development reagent (protease, […]) is added for 1 hr prior to detection in a fluorescence microplate reader (Varioskan® Flash, ThermoFisher Scientific).
This method follows the same steps as Method 1 above, but utilises a higher concentration of the p38 MAPKα protein (2.5 μL of 200 ng/mL protein instead of 2.5 μL of 80 ng/mL protein) for mixing with the test compound.
as §3

[4] = target: GSK3α (Homo sapiens (Human), UniProt P49840); assay: GSK 3α enzyme inhibition (Method 2), Z-LYTE FRET; type: biochemical
Chain of GSK3α (P49840 whole entry): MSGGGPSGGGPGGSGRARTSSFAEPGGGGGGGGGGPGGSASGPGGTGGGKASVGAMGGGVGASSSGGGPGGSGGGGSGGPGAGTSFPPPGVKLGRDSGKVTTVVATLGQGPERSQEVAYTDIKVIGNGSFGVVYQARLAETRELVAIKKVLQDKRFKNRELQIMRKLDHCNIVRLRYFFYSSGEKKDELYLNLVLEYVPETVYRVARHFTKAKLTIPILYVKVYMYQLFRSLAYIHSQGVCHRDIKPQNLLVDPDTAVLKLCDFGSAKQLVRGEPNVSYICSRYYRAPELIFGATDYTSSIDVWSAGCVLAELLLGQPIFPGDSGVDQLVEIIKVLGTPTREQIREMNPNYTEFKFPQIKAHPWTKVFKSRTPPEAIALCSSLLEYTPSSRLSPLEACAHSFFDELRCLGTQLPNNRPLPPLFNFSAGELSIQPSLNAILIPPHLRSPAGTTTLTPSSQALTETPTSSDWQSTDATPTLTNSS
Procedure: as §1
The inhibitory activities of compounds of the invention against the GSK 3α enzyme isoform (Invitrogen), are evaluated by determining the level of activation/phosphorylation of the target peptide. The GSK3-α protein (500 ng/mL, 2.5 μL) is mixed with the test compound (2.5 μL at either 4 μg/mL, 0.4 μg/mL, 0.04 μg/mL, or 0.004 μg/mL) for 2 hr at RT. The FRET peptide (8 μM, 2.5 μL), which is a phosphorylation target for GSK3α, and ATP (40 μM, 2.5 μL) are then added to the enzyme/compound mixture and the resulting mixture incubated for 1 hr. Development reagent (protease, 5 μL) is added for 1 hr prior to detection in a fluorescence microplate reader (Varioskan® Flash, ThermoFisher Scientific).
as §3
This method follows the same steps as Method 1 above, but utilises a shorter period of mixing of the test compound (105 minutes instead of 2 hours) with the GSK3-α protein.

[5] = system: PBMCs; assay: LPS-induced TNFα/IL-8 release in PBMC cells; type: cell-based; settings: Homo sapiens, LPS-stimulated PBMCs
Procedure: Peripheral blood mononuclear cells (PBMCs) from healthy subjects are separated from whole blood using a density gradient (Lymphoprep, Axis-Shield Healthcare). The PBMCs are seeded in 96 well plates and treated with compounds at the desired concentration for 2 hours before addition of 1 ng/mL LPS (Escherichia Coli 0111:B4 from Sigma Aldrich) for 24 hours under normal tissue culture conditions (37° C., 5% CO2). The supernatant is harvested for determination of IL-8 and TNFα concentrations by sandwich ELISA (Duo-set, R&D systems) and read on the fluorescence microplate reader (Varioskan® Flash, ThermoFisher Scientific). The concentration at 50% inhibition (IC50) of IL-8 and TNFα production is calculated from the dose response curve.

[6] = system: d-U937 cells; assay: LPS-induced TNFα/IL-8 release in d-U937 cells; type: cell-based; settings: Homo sapiens, dU937, LPS-stimulated d-U937 cells
Procedure: U937 cells, a human monocytic cell line, are differentiated to macrophage-type cells by incubation with phorbol myristate acetate (PMA; 100 ng/mL) for 48 to 72 hr. Cells are pre-incubated with final concentrations of test compound for 2 hr and are then stimulated with 0.1 μg/mL of LPS (from E. Coli: 0111:B4, Sigma) for 4 hr. The supernatant is collected for determination of TNFα and IL-8 concentrations by sandwich ELISA (Duo-set, R&D systems). The inhibition of TNFα production is calculated as a percentage of that achieved by 10 μg/mL of BIRB796 at each concentration of test compound by comparison against vehicle control. The relative 50% effective concentration (REC50) is determined from the resultant concentration-response curve. The inhibition of IL-8 production is calculated at each concentration of test compound by comparison with vehicle control. The 50% inhibitory concentration (IC50) is determined from the resultant concentration-response curve.

[7] = target: Syk (Homo sapiens (Human), UniProt P43405); assay: Syk enzyme inhibition, Z-LYTE FRET; type: biochemical
Procedure: as §1, §2, §3

[8] = system: HT29 cells; assay: IL-1-induced IL-8 release in HT29 cells; type: cell-based; settings: Homo sapiens, HT-29, IL-1β-stimulated HT29 cells, read-out: IC50 Values for Inhibition of Cytokine Release HT29 cells IL-8
Procedure: HT29 cells, a human colon adenocarcinoma cell line, are plated in a 96 well plate (24 hrs) and pre-treated with compounds at the desired concentration for 2 hours before addition of 5 ng/mL of IL-1β (Abcam) for 24 hours. Supernatants are harvested for IL-8 quantification by Sandwich ELISA (Duo-set, R&D System). The IC50 is determined from the dose response curve.

[9] = IL-2, read-out: IC50 Values for Inhibition of Cytokine Release PBMCs IL-2
[10] = IL-8, read-out: IC50 Values for Inhibition of Cytokine Release PBMCs IL-8
[11] = IL-8, read-out: IC50 Values for Inhibition of Cytokine Release dU937 cells IL-8
[12] = TNFα (method describes REC50 relative to BIRB796), read-out: IC50 Values for Inhibition of Cytokine Release dU937 cells TNFα
[13] = IFNγ, read-out: IC50 Values for Inhibition of Cytokine Release PBMCs IFNγ

| Structure (SMILES) | IC50 [2] [nM] | IC50 [3] [nM] | IC50 [4] [nM] | IC50 [6, 11] [nM] | IC50 [6, 12] [nM] | IC50 [7] [nM] | IC50 [8] [nM] | IC50 [1, 9] [nM] | IC50 [5, 10] [nM] | IC50 [1, 13] [nM] | IC50 ([5]; TNFα, assay (b), read-out: IC50 for inhibition of TNFα release in PBMCs) [nM] |
| --- | --- | --- | --- | --- | --- | --- | --- | --- | --- | --- | --- |
| C#CC(C)(C)c1cc(NC(=O)Nc2ccc(Oc3ccnc(Nc4ccc5c(c4)NC(=O)C5)n3)c3ccccc23)n(-c2ccc(C)cc2)n1 [Example 3, 1-(3-(2-Methylbut-3-yn-2-yl)-1-(p-tolyl)-1H-pyrazol-5-yl)-3-(4-((2-((2-oxoindolin-6-yl)amino)pyrimidin-4-yl)oxy)naphthalen-1-yl)urea] | 203 | 87 | > 10000 | 4.4 | 2.8 | 113 | 6 | 0.7 | 2.1 |  |  |
| C#CC(C)(C)c1cc(NC(=O)Nc2ccc(Oc3ccnc(Nc4ccccc4)n3)c3ccccc23)n(-c2ccc(C)cc2)n1 [Example 1, 1-(3-(2-Methylbut-3-yn-2-yl)-1-(p-tolyl)-1H-pyrazol-5-yl)-3-(4-((2-(phenylamino)pyrimidin-4-yl)oxy)naphthalen-1-yl)urea] | 60 | 85 | > 10000 | 3.2 | 1.4 | > 1000 |  |  | 1.6 |  | 2.5 |

Further lines, with some results ahead:

| IC50 [2] [nM] | IC50 [3] [nM] | IC50 [4] [nM] | IC50 [6, 11] [nM] | IC50 [6, 12] [nM] | IC50 [7] [nM] | IC50 [8] [nM] | Structure (SMILES) | IC50 [1, 9] [nM] | IC50 [5, 10] [nM] | IC50 [1, 13] [nM] | IC50 ([5]; TNFα, assay (b), read-out: IC50 for inhibition of TNFα release in PBMCs) [nM] |
| --- | --- | --- | --- | --- | --- | --- | --- | --- | --- | --- | --- |
| 74 | 214 | 2310 | 1.2 |  | 275 | 3.7 | C#CC(C)(C)c1cc(NC(=O)Nc2ccc(Oc3ccnc(Nc4cc(C(=O)NCCN5CCOCC5)cc(C(F)(F)F)c4)n3)c3ccccc23)n(-c2ccc(C)cc2)n1 [Example 12, 3-((4-((4-(3-(3-(2-Methylbut-3-yn-2-yl)-1-(p-tolyl)-1H-pyrazol-5-yl)ureido)naphthalen-1-yl)oxy)pyrimidin-2-yl)amino)-N-(2-morpholinoethyl)-5-(trifluoromethyl)benzamide] | 171 | 2.1 | 2.6 |  |
| 37 | 273 | 5440 | 1.8 |  | 203 | 3.6 | C#CC(C)(C)c1cc(NC(=O)Nc2ccc(Oc3ccnc(Nc4cc(OC(F)(F)F)cc(C(=O)NCCN5CCOCC5)c4)n3)c3ccccc23)n(-c2ccc(C)cc2)n1 [Example 14, 3-((4-((4-(3-(3-(2-Methylbut-3-yn-2-yl)-1-(p-tolyl)-1H-pyrazol-5-yl)ureido)naphthalen-1-yl)oxy)pyrimidin-2-yl)amino)-N-(2-morpholinoethyl)-5-(trifluoromethoxy)benzamide] | 170 | 1.4 | 2 |  |
| 16 | 67 | 3590 | 1.3 |  | 40 | 2.5 | C#Cc1cc(Nc2nccc(Oc3ccc(NC(=O)Nc4cc(C(C)(C)C#C)nn4-c4ccc(C)cc4)c4ccccc34)n2)cc(C(=O)NCCN2CCOCC2)c1 [Example 15, 3-Ethynyl-5-((4-((4-(3-(3-(2-methylbut-3-yn-2-yl)-1-(p-tolyl)-1H-pyrazol-5-yl)ureido)naphthalen-1-yl)oxy)pyrimidin-2-yl)amino)-N-(2-morpholinoethyl)benzamide] | 69.3 | 0.8 | 2.4 |  |
